This is an account of results in publication PMC2889921 (The Journal of organic chemistry, 2009).

The experiment has as its target T1, PKCζ (protein kinase C ζ) (Homo sapiens, UniProt Q05513).
T1 sequence (Q05513 1-592): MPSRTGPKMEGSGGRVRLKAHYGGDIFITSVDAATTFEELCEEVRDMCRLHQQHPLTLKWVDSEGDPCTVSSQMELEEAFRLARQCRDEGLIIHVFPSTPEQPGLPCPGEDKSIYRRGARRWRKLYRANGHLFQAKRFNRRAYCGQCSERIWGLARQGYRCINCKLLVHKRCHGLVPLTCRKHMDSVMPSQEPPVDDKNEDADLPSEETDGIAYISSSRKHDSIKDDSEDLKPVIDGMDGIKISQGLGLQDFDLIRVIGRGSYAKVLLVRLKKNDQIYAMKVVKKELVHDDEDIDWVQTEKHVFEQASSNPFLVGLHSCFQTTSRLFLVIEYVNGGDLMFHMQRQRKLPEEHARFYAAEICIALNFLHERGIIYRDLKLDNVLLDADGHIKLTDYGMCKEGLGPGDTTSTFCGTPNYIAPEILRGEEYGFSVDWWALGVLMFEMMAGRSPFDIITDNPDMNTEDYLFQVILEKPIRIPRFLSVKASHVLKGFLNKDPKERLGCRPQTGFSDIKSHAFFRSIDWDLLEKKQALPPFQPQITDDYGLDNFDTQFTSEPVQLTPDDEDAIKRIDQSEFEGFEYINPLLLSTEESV
As to the kind of experiment: homogeneous TR-FRET kinase activity assay. The class given is biochemical. On the technique in general: Time-resolved FRET reads energy transfer from a long-lived donor to a nearby acceptor.

fibrosterol sulfate A [compound 1]: half-maximal inhibition (IC50) was put at 16.4 µM. Substance fibrosterol sulfate B [compound 2] had an IC50 of 5.6 µM.

A word on the IC50: it is the concentration at which inhibition is half-maximal. Higher therefore signals lower potency.
